In ChEMBL document CHEMBL3885881, “DrugMatrix”:

Species on record: Rattus norvegicus
Assay: DrugMatrix - Regimen: Daily Repeat
Format: toxicity, organism-based, Sprague-Dawley
Design: regimen Daily Repeat, gender Male, age 6-8 weeks
Settings: in vivo, po, […], route oral GAVAGE; for ABSOLUTE BASOPHIL / ABSOLUTE EOSINOPHIL / ABSOLUTE LYMPHOCYTE / ABSOLUTE MONOCYTE / ABSOLUTE SEGMENTED NEUTROPHIL / BASOPHIL / EOSINOPHIL / ERYTHROCYTE COUNT / HEMATOCRIT / HEMOGLOBIN / LEUKOCYTE COUNT / LYMPHOCYTE / MEAN CORPUSCULAR HEMOGLOBIN / MEAN CORPUSCULAR HEMOGLOBIN CONCENTRATION / MEAN CORPUSCULAR VOLUME / MONOCYTE / NEUTROPHIL / NUCLEATED RED BLOOD CELLS / PLATELET COUNT: tissue Blood; for ALANINE AMINOTRANSFERASE / ALBUMIN / ALKALINE PHOSPHATASE / ASPARTATE AMINOTRANSFERASE / BLOOD UREA NITROGEN / CARBON DIOXIDE / CHLORIDE / CHOLESTEROL / CREATINE PHOSPHOKINASE / CREATININE / GLUCOSE / LACTATE DEHYDROGENASE / LIPASE / PHOSPHORUS / POTASSIUM / SODIUM / TOTAL BILIRUBIN / TOTAL PROTEIN / URIC ACID: tissue Plasma
[1] = 130 mg/kg, dose level Low, time 7 day
[2] = 500 mg/kg, 72 h, dose level High, time 3 day
[3] = 500 mg/kg, dose level High, time 7 day

## CCOC(=O)C(C)(C)Oc1ccc(Cl)cc1 [CLOFIBRATE]
[1]
  ABSOLUTE BASOPHIL: 0 CELLS/uL
  ABSOLUTE EOSINOPHIL: 21.17 CELLS/uL
  ABSOLUTE LYMPHOCYTE: 6867.67 CELLS/uL
  ABSOLUTE MONOCYTE: 104.17 CELLS/uL
  ABSOLUTE SEGMENTED NEUTROPHIL: 707 CELLS/uL
  BASOPHIL: 0%
  EOSINOPHIL: 0.17%
  ERYTHROCYTE COUNT: 5.45 x10E6/uL
  HEMATOCRIT: 34%
  HEMOGLOBIN: 13.12 G/DL
  LEUKOCYTE COUNT: 7.7 x10E3/uL
  LYMPHOCYTE: 90.17%
  MEAN CORPUSCULAR HEMOGLOBIN: 24.08 pg
  MEAN CORPUSCULAR HEMOGLOBIN CONCENTRATION: 38.57 G/DL
  MEAN CORPUSCULAR VOLUME: 62.45 fL
  MONOCYTE: 1.17%
  NEUTROPHIL: 8.5%
  NUCLEATED RED BLOOD CELLS: 0 /100WBC
  PLATELET COUNT: 1220 x10E3/uL
  ALANINE AMINOTRANSFERASE: 65.83 u/L
  ALBUMIN: 4.38 G/DL
  ALKALINE PHOSPHATASE: 251.5 u/L
  ASPARTATE AMINOTRANSFERASE: 76.33 u/L
  BLOOD UREA NITROGEN: 14.33 mg/dL
  CARBON DIOXIDE: 30.5 mmol/L
  CHLORIDE: 104.5 MEQ/L
  CHOLESTEROL: 60.5 mg/dL
  CREATINE PHOSPHOKINASE: 323.5 u/L
  CREATININE: 0.21 mg/dL
  GLUCOSE: 149.17 mg/dL
  LACTATE DEHYDROGENASE: 102.17 u/L
  LIPASE: 9.67 u/L
  PHOSPHORUS: 10.73 mg/dL
  POTASSIUM: 5.56 MEQ/L
  SODIUM: 146.55 MEQ/L
  TOTAL BILIRUBIN: 0.1 mg/dL
  TOTAL PROTEIN: 6.07 G/DL
  URIC ACID: 0.98 mg/dL
[2]
  ABSOLUTE BASOPHIL: 0 CELLS/uL
  ABSOLUTE EOSINOPHIL: 0 CELLS/uL
  ABSOLUTE LYMPHOCYTE: 11363.33 CELLS/uL
  ABSOLUTE MONOCYTE: 222.5 CELLS/uL
  ABSOLUTE SEGMENTED NEUTROPHIL: 1180.83 CELLS/uL
  BASOPHIL: 0%
  EOSINOPHIL: 0%
  ERYTHROCYTE COUNT: 5.54 x10E6/uL
  HEMATOCRIT: 33.68%
  HEMOGLOBIN: 13.67 G/DL
  LEUKOCYTE COUNT: 12.77 x10E3/uL
  LYMPHOCYTE: 89%
  MEAN CORPUSCULAR HEMOGLOBIN: 24.72 pg
  MEAN CORPUSCULAR HEMOGLOBIN CONCENTRATION: 40.7 G/DL
  MEAN CORPUSCULAR VOLUME: 60.78 fL
  MONOCYTE: 1.67%
  NEUTROPHIL: 9.33%
  NUCLEATED RED BLOOD CELLS: 0 /100WBC
  PLATELET COUNT: 1039.67 x10E3/uL
  ALANINE AMINOTRANSFERASE: 88.83 u/L
  ALBUMIN: 4.27 G/DL
  ALKALINE PHOSPHATASE: 424.33 u/L
  ASPARTATE AMINOTRANSFERASE: 162 u/L
  BLOOD UREA NITROGEN: 18 mg/dL
  CARBON DIOXIDE: 26.83 mmol/L
  CHLORIDE: 103.5 MEQ/L
  CHOLESTEROL: 32.5 mg/dL
  CREATINE PHOSPHOKINASE: 350.5 u/L
  CREATININE: 0.19 mg/dL
  GLUCOSE: 152.17 mg/dL
  LACTATE DEHYDROGENASE: 380 u/L
  LIPASE: 9.17 u/L
  PHOSPHORUS: 9.13 mg/dL
  POTASSIUM: 6.05 MEQ/L
  SODIUM: 141.43 MEQ/L
  TOTAL BILIRUBIN: 0.2 mg/dL
  TOTAL PROTEIN: 5.38 G/DL
  URIC ACID: 1.42 mg/dL
[3]
  ABSOLUTE BASOPHIL: 0 CELLS/uL
  ABSOLUTE EOSINOPHIL: 10.67 CELLS/uL
  ABSOLUTE LYMPHOCYTE: 6850.83 CELLS/uL
  ABSOLUTE MONOCYTE: 72 CELLS/uL
  ABSOLUTE SEGMENTED NEUTROPHIL: 433.17 CELLS/uL
  BASOPHIL: 0%
  EOSINOPHIL: 0.17%
  ERYTHROCYTE COUNT: 5.25 x10E6/uL
  HEMATOCRIT: 32.12%
  HEMOGLOBIN: 12.58 G/DL
  LEUKOCYTE COUNT: 7.37 x10E3/uL
  LYMPHOCYTE: 92.67%
  MEAN CORPUSCULAR HEMOGLOBIN: 23.97 pg
  MEAN CORPUSCULAR HEMOGLOBIN CONCENTRATION: 39.23 G/DL
  MEAN CORPUSCULAR VOLUME: 61.12 fL
  MONOCYTE: 1%
  NEUTROPHIL: 6.17%
  NUCLEATED RED BLOOD CELLS: 0 /100WBC
  PLATELET COUNT: 961.33 x10E3/uL
  ALANINE AMINOTRANSFERASE: 91 u/L
  ALBUMIN: 4.27 G/DL
  ALKALINE PHOSPHATASE: 368.83 u/L
  ASPARTATE AMINOTRANSFERASE: 131.17 u/L
  BLOOD UREA NITROGEN: 15.67 mg/dL
  CARBON DIOXIDE: 32 mmol/L
  CHLORIDE: 102 MEQ/L
  CHOLESTEROL: 52.67 mg/dL
  CREATINE PHOSPHOKINASE: 300.5 u/L
  CREATININE: 0.21 mg/dL
  GLUCOSE: 154.17 mg/dL
  LACTATE DEHYDROGENASE: 169.67 u/L
  LIPASE: 10.17 u/L
  PHOSPHORUS: 10.03 mg/dL
  POTASSIUM: 5.38 MEQ/L
  SODIUM: 143.68 MEQ/L
  TOTAL BILIRUBIN: 0.1 mg/dL
  TOTAL PROTEIN: 5.75 G/DL
  URIC ACID: 0.85 mg/dL
